# Publication PMC5078040 (Oncotarget, 2016)
# Legend:
# NIM1 = target: T1, NIM1 (Homo sapiens, UniProt Q8IY84); experiment: KinomeScan; assay type: binding; details: 1uM
# T1 construct: purchased DiscoveRx KINOMEscan
# YANK1 = target: T2, YANK1 (Homo sapiens, UniProt Q8WU08); experiment: KinomeScan; assay type: binding; details: 1uM
# T2 construct: purchased DiscoveRx KINOMEscan
# PRKCE = target: T3, PRKCE (Homo sapiens, UniProt Q02156); experiment: KinomeScan; assay type: binding; details: 1uM
# T3 construct: purchased DiscoveRx KINOMEscan
# HIPK2 = target: T4, HIPK2 (Homo sapiens, UniProt Q9H2X6); experiment: KinomeScan; assay type: binding; details: 1uM
# T4 construct: purchased DiscoveRx KINOMEscan
# [1] = test system: phosphorylation of PRAS40 GSK3b and FOXO1; experiment: Signaling pathway effect examination (western blotting); assay type: cell-based, human; details: B-cell malignant cell lines
# Experimental: (§1) The cells were collected and lysed, and cell lysates were analyzed by western blotting.
# [2] = test system: phosphorylation of Akt at both Thr308 and Ser473; experiment: as above; assay type: cell-based, human; details: 1 hour
# Experimental: as §1
# [3] = test system: NF-kB P65 phosphorylation; experiment: as above; assay type: cell-based, human; details: any of the tested cell lines
# Experimental: as §1
# 4EBP1 phosphorylation = experiment: as above; assay type: cell-based, human; details: all of the cell lines
# Experimental: as §1
# Erk phosphorylation = experiment: as above; assay type: cell-based, human
# Experimental: as §1
# CDK4-cyclinD3 = target: T5, CDK4-cyclinD3 (Homo sapiens, UniProt P11802); experiment: KinomeScan; assay type: binding; details: 1uM
# T5 construct: purchased DiscoveRx KINOMEscan
# NEK4 = target: T6, NEK4 (Homo sapiens, UniProt P51957); experiment: KinomeScan; assay type: binding; details: 1uM
# T6 construct: purchased DiscoveRx KINOMEscan
# PFTAIRE2 = target: T7, PFTAIRE2 (Homo sapiens, UniProt Q96Q40); experiment: KinomeScan; assay type: binding; details: 1uM
# T7 construct: purchased DiscoveRx KINOMEscan
# p38-gamma = target: T8, p38-gamma (Homo sapiens, UniProt P53778); experiment: KinomeScan; assay type: binding; details: 1uM
# T8 construct: purchased DiscoveRx KINOMEscan
# [4] = target: T9, ABL1(F317I)-phosphorylated (Homo sapiens, UniProt P00519, F317I); experiment: KinomeScan; assay type: binding; details: 1uM
# T9 construct: purchased DiscoveRx KINOMEscan
# ANKK1 = target: T10, ANKK1 (Homo sapiens, UniProt Q8NFD2); experiment: KinomeScan; assay type: binding; details: 1uM
# T10 construct: purchased DiscoveRx KINOMEscan
# NIK = target: T11, NIK (Homo sapiens, UniProt Q99558); experiment: KinomeScan; assay type: binding; details: 1uM
# T11 construct: purchased DiscoveRx KINOMEscan
# T11 sequence (Q99558 whole entry): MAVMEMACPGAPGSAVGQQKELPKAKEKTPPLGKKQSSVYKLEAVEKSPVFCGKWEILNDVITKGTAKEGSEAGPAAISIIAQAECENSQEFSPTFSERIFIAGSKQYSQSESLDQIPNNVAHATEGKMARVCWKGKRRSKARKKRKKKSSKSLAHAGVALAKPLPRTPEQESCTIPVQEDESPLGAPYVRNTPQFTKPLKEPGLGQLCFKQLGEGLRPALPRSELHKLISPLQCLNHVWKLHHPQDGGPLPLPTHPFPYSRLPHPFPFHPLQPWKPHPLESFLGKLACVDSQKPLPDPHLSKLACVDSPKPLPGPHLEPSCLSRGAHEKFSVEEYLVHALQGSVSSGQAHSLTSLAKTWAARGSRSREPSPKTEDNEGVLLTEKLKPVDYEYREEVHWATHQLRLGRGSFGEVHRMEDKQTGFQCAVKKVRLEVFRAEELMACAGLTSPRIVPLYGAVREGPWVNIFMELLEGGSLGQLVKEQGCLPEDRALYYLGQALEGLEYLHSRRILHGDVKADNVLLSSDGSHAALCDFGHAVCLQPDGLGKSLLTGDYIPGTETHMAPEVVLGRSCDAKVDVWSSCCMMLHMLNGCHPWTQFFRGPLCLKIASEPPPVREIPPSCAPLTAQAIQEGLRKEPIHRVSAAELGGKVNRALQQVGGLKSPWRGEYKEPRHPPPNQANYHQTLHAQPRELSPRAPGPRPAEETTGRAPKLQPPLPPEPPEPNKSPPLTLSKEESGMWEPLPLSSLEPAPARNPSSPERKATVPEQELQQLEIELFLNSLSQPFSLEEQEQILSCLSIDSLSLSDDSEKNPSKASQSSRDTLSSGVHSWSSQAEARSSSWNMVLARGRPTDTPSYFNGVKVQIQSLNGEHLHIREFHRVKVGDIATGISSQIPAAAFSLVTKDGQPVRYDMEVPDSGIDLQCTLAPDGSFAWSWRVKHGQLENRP
# MUSK = target: T12, MUSK (Homo sapiens, UniProt O15146); experiment: KinomeScan; assay type: binding; details: 1uM
# T12 construct: purchased DiscoveRx KINOMEscan
# PFCDPK1(P.falciparum) = target: T13, PFCDPK1(P.falciparum) (Plasmodium falciparum, UniProt P62344); experiment: KinomeScan; assay type: binding; details: 1uM
# T13 construct: purchased DiscoveRx KINOMEscan
# T13 sequence (P62344 whole entry): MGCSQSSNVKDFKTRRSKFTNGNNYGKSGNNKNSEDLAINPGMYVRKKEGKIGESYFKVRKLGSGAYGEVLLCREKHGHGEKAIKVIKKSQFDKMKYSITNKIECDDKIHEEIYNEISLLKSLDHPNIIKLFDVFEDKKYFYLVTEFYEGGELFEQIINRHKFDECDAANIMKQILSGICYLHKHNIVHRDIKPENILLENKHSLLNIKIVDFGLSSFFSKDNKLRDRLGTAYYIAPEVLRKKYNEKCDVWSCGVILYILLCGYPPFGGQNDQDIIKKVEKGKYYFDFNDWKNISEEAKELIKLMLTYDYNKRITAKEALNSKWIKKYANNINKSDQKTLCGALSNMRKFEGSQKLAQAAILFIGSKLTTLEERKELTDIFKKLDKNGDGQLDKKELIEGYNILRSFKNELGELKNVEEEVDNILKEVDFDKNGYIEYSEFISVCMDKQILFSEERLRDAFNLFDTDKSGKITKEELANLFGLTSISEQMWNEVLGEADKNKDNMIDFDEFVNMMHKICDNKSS
# CLK2 = target: T14, CLK2 (Homo sapiens, UniProt P49760); experiment: KinomeScan; assay type: binding; details: 1uM
# T14 construct: purchased DiscoveRx KINOMEscan
# [5] = target: T15, EGFR(L747-E749del, A750P) (Homo sapiens, UniProt P00533, A750P/DEL747-749); experiment: KinomeScan; assay type: binding; details: 1uM
# T15 construct: purchased DiscoveRx KINOMEscan
# KIT(D816V) = target: T16, KIT(D816V) (Homo sapiens, UniProt P10721, D816V); experiment: KinomeScan; assay type: binding; details: 1uM
# T16 construct: purchased DiscoveRx KINOMEscan
# T16 sequence (P10721 26-976 D816V): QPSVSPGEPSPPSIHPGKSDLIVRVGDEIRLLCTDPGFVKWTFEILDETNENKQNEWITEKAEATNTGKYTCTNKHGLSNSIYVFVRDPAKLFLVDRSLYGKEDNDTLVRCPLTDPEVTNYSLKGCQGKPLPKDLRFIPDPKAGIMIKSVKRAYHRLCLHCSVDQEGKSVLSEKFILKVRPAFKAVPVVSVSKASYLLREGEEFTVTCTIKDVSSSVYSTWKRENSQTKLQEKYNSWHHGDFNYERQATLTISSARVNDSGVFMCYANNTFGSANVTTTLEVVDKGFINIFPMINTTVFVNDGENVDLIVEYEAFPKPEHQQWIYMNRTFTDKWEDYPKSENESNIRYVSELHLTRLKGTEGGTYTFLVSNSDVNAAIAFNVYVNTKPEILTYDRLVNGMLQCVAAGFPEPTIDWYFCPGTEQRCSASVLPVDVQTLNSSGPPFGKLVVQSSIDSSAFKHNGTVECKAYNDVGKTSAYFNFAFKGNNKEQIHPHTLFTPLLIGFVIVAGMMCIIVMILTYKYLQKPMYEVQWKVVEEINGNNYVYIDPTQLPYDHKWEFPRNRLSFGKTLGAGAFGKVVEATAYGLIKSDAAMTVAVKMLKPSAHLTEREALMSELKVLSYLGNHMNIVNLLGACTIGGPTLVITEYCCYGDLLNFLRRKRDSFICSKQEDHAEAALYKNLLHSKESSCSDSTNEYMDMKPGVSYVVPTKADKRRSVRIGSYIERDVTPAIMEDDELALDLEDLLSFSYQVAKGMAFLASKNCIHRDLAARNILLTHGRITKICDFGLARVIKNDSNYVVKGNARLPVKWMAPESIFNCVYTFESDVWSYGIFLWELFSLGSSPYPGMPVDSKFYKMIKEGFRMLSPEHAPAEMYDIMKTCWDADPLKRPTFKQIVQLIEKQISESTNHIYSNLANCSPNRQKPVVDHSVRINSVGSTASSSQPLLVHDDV
# PCTK3 = target: T17, PCTK3 (Homo sapiens, UniProt Q07002); experiment: KinomeScan; assay type: binding; details: 1uM
# T17 construct: purchased DiscoveRx KINOMEscan
# T17 sequence (Q07002 whole entry): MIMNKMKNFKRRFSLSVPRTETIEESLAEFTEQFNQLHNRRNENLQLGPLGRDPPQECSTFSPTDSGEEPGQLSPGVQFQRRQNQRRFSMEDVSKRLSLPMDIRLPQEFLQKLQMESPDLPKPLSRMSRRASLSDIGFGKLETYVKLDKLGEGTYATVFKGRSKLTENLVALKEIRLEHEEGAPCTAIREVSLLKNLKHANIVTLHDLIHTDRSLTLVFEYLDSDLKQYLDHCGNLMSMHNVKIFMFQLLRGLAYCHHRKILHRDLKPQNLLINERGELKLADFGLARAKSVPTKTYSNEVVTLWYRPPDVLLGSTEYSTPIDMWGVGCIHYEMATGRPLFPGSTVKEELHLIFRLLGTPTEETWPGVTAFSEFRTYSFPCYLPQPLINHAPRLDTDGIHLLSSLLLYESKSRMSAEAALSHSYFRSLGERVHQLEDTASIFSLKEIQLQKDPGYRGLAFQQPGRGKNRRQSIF
# EPHA5 = target: T18, EPHA5 (Homo sapiens, UniProt P54756); experiment: KinomeScan; assay type: binding; details: 1uM
# T18 construct: purchased DiscoveRx KINOMEscan
# SIK = target: T19, SIK (Homo sapiens, UniProt P57059); experiment: KinomeScan; assay type: binding; details: 1uM
# T19 construct: purchased DiscoveRx KINOMEscan
# CAMKK1 = target: T20, CAMKK1 (Homo sapiens, UniProt Q8N5S9); experiment: KinomeScan; assay type: binding; details: 1uM
# T20 construct: purchased DiscoveRx KINOMEscan
# FGR = target: T21, FGR (Homo sapiens, UniProt P09769); experiment: KinomeScan; assay type: binding; details: 1uM
# T21 construct: purchased DiscoveRx KINOMEscan
# BRAF = target: T22, BRAF (Homo sapiens, UniProt P15056); experiment: KinomeScan; assay type: binding; details: 1uM
# T22 construct: purchased DiscoveRx KINOMEscan
# T22 sequence (P15056 whole entry): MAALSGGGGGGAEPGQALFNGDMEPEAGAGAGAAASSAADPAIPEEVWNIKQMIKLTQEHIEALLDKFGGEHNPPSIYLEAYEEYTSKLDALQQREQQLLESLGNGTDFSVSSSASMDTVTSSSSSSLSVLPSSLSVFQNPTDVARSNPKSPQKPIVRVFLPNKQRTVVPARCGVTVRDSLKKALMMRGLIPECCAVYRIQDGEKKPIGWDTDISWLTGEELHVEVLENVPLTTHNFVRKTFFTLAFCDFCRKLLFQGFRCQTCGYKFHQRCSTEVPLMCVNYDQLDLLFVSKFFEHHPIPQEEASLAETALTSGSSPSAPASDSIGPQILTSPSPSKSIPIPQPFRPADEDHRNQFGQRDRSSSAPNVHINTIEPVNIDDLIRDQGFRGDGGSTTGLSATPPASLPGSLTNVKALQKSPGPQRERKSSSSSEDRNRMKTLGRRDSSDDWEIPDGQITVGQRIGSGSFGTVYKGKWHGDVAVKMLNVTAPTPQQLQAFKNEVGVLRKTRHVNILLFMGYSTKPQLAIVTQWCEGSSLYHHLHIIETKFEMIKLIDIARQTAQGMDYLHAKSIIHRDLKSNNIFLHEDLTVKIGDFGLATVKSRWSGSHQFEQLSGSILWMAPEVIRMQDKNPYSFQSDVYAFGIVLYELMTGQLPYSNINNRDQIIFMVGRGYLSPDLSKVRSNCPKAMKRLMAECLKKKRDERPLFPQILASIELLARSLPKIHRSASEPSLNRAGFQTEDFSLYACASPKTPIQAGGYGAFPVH
# KIT(V559D) = target: T23, KIT(V559D) (Homo sapiens, UniProt P10721, V559D); experiment: KinomeScan; assay type: binding; details: 1uM
# T23 construct: purchased DiscoveRx KINOMEscan
# T23 sequence (P10721 26-976 V559D): as the sequence (P10721 26-976 D816V) above, with V534D, V791D counted along it
# IGF1R = target: T24, IGF1R (Homo sapiens, UniProt P08069); experiment: KinomeScan; assay type: binding; details: 1uM
# T24 construct: purchased DiscoveRx KINOMEscan
# EGFR(G719C) = target: T25, EGFR(G719C) (Homo sapiens, UniProt P00533, G719C); experiment: KinomeScan; assay type: binding; details: 1uM
# T25 construct: purchased DiscoveRx KINOMEscan
# MTOR = target: T26, MTOR (Homo sapiens, UniProt P42345); experiment: KinomeScan; assay type: binding; details: 1uM
# T26 construct: purchased DiscoveRx KINOMEscan
# PIK3CG = target: T27, PIK3CG (Homo sapiens, UniProt P48736); experiment: KinomeScan; assay type: binding; details: 1uM
# T27 construct: purchased DiscoveRx KINOMEscan
# SNRK = target: T28, SNRK (Homo sapiens, UniProt Q9NRH2); experiment: KinomeScan; assay type: binding; details: 1uM
# T28 construct: purchased DiscoveRx KINOMEscan
# LIMK1 = target: T29, LIMK1 (Homo sapiens, UniProt P53667); experiment: KinomeScan; assay type: binding; details: 1uM
# T29 construct: purchased DiscoveRx KINOMEscan
# TNK2 = target: T30, TNK2 (Homo sapiens, UniProt Q07912); experiment: KinomeScan; assay type: binding; details: 1uM
# T30 construct: purchased DiscoveRx KINOMEscan
# KIT(A829P) = target: T31, KIT(A829P) (Homo sapiens, UniProt P10721, A829P); experiment: KinomeScan; assay type: binding; details: 1uM
# T31 construct: purchased DiscoveRx KINOMEscan
# T31 sequence (P10721 26-976 A829P): as the sequence (P10721 26-976 D816V) above, with V791D, A804P counted along it
# FGFR4 = target: T32, FGFR4 (Homo sapiens, UniProt P22455); experiment: KinomeScan; assay type: binding; details: 1uM
# T32 construct: purchased DiscoveRx KINOMEscan
# T32 sequence (P22455 22-802): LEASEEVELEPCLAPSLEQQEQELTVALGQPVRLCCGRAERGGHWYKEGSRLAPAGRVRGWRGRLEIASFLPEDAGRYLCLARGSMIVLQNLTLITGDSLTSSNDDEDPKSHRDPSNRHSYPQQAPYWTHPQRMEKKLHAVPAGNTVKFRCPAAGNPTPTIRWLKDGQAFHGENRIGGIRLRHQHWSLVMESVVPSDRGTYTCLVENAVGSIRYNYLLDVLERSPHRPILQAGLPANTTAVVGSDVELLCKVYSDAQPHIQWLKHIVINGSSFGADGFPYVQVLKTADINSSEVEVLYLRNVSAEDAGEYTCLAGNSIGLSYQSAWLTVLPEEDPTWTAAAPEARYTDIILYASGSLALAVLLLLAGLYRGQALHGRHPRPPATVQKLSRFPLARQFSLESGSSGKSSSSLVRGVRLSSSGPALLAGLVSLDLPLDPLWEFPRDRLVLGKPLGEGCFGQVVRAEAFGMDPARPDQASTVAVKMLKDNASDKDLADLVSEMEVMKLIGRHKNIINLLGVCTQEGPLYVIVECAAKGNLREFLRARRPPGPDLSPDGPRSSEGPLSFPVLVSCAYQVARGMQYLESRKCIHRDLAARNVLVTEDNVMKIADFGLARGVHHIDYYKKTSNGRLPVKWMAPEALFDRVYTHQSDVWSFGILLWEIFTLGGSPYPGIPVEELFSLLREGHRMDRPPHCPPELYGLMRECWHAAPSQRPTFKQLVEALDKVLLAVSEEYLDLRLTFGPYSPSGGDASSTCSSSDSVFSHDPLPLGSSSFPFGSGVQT
# PKMYT1 = target: T33, PKMYT1 (Homo sapiens, UniProt Q99640); experiment: KinomeScan; assay type: binding; details: 1uM
# T33 construct: purchased DiscoveRx KINOMEscan
# T33 sequence (Q99640 whole entry): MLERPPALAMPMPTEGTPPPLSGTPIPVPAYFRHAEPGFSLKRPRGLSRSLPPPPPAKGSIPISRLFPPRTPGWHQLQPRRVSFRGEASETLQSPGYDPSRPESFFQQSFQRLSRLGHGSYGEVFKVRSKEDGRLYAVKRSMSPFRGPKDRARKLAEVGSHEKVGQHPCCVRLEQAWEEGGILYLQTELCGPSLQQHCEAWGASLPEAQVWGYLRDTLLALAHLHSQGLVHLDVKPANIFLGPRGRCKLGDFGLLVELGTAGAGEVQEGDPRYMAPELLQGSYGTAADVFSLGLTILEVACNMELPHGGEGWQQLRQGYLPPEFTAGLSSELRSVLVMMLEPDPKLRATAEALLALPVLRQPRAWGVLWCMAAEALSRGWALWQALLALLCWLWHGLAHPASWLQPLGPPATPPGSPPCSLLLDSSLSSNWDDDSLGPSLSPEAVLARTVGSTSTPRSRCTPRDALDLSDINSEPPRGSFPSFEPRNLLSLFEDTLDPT
# ARK5 = target: T34, ARK5 (Homo sapiens, UniProt O60285); experiment: KinomeScan; assay type: binding; details: 1uM
# T34 construct: purchased DiscoveRx KINOMEscan
# ABL1-nonphosphorylated = target: T35, ABL1-nonphosphorylated (Homo sapiens, UniProt P00519); experiment: KinomeScan; assay type: binding; details: 1uM
# T35 construct: purchased DiscoveRx KINOMEscan
# EGFR(L747-T751del,Sins) = experiment: KinomeScan; assay type: binding; details: 1uM
smiles,measurement,setting,value
Cc1nc(NC(=O)[C@@H](N)C(C)C)sc1-c1cnc(Cl)c(NS(=O)(=O)c2ccccc2)c1 [PI3KD-IN-015],KinomeScan NIM1,NIM1,100
same,KinomeScan YANK1,YANK1,100
same,KinomeScan PRKCE,PRKCE,100
same,KinomeScan HIPK2,HIPK2,100
same,phosphorylation of Akt substrates PRAS40 GSK3b and FOXO1,[1],decreased phosphorylation
same,EC50,"[2]; Homo sapiens, CLL cell, HS505T (CLL) cells",< 1000 nM
same,EC50,"[2]; Homo sapiens, HT (B-NHL) cells",< 1000 nM
same,EC50,"[2]; Homo sapiens, MOLM-13 (AML) cells",< 1000 nM
same,EC50,[2]; MEC-1 (CLL) cells,< 1000 nM
same,EC50,[2]; MEC-2 (CLL) cells,< 1000 nM
same,EC50,[2]; Namalwa (Burkitt Lymphoma) cells,< 1000 nM
same,NF-kB P65 phosphorylation,[3],not inhibited
same,4EBP1 phosphorylation,4EBP1 phosphorylation,not changed at all
same,Erk phosphorylation,Erk phosphorylation; MOLM13 and HT cells,not in MOLM13 and HT
same,Erk phosphorylation,"Erk phosphorylation; Namalwa, MEC-1, MEC-2 and HS505T cells",reduced
same,KinomeScan CDK4-cyclinD3,CDK4-cyclinD3,100
same,KinomeScan NEK4,NEK4,98
same,KinomeScan PFTAIRE2,PFTAIRE2,100
same,KinomeScan p38-gamma,p38-gamma,86
same,KinomeScan ABL1(F317I)-phosphorylated,[4],89
same,KinomeScan ANKK1,ANKK1,100
same,KinomeScan NIK,NIK,83
same,KinomeScan MUSK,MUSK,96
same,KinomeScan PFCDPK1(P.falciparum),PFCDPK1(P.falciparum),100
same,KinomeScan CLK2,CLK2,90
same,"KinomeScan EGFR(L747-E749del, A750P)",[5],100
same,KinomeScan KIT(D816V),KIT(D816V),100
same,KinomeScan PCTK3,PCTK3,100
same,KinomeScan EPHA5,EPHA5,100
same,KinomeScan SIK,SIK,99
same,KinomeScan CAMKK1,CAMKK1,100
same,KinomeScan FGR,FGR,100
same,KinomeScan BRAF,BRAF,93
same,KinomeScan KIT(V559D),KIT(V559D),87
same,KinomeScan IGF1R,IGF1R,100
same,KinomeScan EGFR(G719C),EGFR(G719C),100
same,KinomeScan MTOR,MTOR,28
same,KinomeScan PIK3CG,PIK3CG,0.05
same,KinomeScan SNRK,SNRK,100
same,KinomeScan LIMK1,LIMK1,100
same,KinomeScan TNK2,TNK2,100
same,KinomeScan KIT(A829P),KIT(A829P),96
same,KinomeScan FGFR4,FGFR4,93
same,KinomeScan PKMYT1,PKMYT1,100
same,KinomeScan ARK5,ARK5,87
same,KinomeScan ABL1-nonphosphorylated,ABL1-nonphosphorylated,100
same,"KinomeScan EGFR(L747-T751del,Sins)","EGFR(L747-T751del,Sins)",100
